These results are taken from US8871751B2, “Compositions and methods relating to nuclear hormone and steroid hormone receptors including inhibitors of estrogen receptor alpha-mediated gene expression and inhibition of breast cancer” (The Board of Trustees of the University of Illinois, priority 2008, dated 2014).

Each structure is given as a SMILES string. “And” between values parts separate entries of the source, which are not always exact repeats. Equal values may be shown once. “Also recorded” adds a separate entry of the source. Read-outs that look alike come from different tables or passages of the source.

Assay [1] has as its target T1, ERα (Homo sapiens, UniProt P03372).
T1 sequence (P03372 1-595): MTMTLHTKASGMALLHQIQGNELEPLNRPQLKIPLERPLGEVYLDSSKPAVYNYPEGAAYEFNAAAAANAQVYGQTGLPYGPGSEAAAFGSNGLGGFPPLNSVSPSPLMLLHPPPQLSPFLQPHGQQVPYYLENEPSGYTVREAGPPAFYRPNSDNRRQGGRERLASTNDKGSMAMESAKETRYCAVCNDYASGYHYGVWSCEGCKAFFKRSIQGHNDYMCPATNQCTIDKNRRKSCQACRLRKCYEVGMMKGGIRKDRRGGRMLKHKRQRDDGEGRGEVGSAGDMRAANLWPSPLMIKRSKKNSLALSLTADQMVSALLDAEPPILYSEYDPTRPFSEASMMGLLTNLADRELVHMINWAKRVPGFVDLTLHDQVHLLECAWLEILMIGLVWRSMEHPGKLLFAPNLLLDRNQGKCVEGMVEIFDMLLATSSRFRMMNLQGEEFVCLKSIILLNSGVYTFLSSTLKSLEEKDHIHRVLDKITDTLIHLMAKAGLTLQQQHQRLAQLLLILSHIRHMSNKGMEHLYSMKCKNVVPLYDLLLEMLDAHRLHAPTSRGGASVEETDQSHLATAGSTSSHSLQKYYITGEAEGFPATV
As to the kind of experiment: PI-9 mRNA induction in tamoxifen-resistant MCF7ERαHA cells (qRT-PCR). Type of assay: cell-based. Details: endogenous in cells. The settings on record: Dox. From the text: A model for tamoxifen-resistant breast cancers that overexpress ERα is MCF7ERαHA cells, which is a tetracycline-inducible MCF-7 model in which doxycycline (Dox) induces overexpression of ERα (40,41). In contrast to MCF-7 cells, in these cells Tam and OHT are potent agonists (2,42) and OHT, which stabilizes ERα, induced proteinase inhibitor 9 (PI-9) mRNA and protein more effectively than E2 (2,43). MCF7ERαHA cells were maintained in 10% 6XCD-treated FBS (40,41). All cells were in 0.1% DMSO vehicle and contained the indicated concentrations of TPBM added at the same time as the E2 or OHT. To induce PI-9 mRNA, the cells were treated with 0.5 μg/ml doxycycline to induce ERα and ethanol vehicle, 100 pM E2 or 500 pM OHT for 24 h, mRNA was extracted and PI-9 mRNA levels were determined by quantitative RT-PCR as described (2).
(§1) Endogenous Gene Expression. MCF-7 cells or MCF7ERαHA cells were maintained for 4 days in medium containing 5% CD calf serum (MCF-7 cells) or 10% 6×CD-FBS (MCF7ERαHA cells). In assays of TPSF inhibition of PI-9 induction, cells were plated, incubated for 24 hours in the indicated concentrations of TPSF and then maintained 4 hours with and without E2, with and without TPSF. To induce ERα, MCF7ERαHA cells were also maintained in 0.5 μg/ml Dox for 24 hours prior to addition of E2 or OHT with or without TPSF. For induction of cyclin D1, 24 hours after plating the cells, E2 with and without TPSF was added, the cells were maintained for 24 hours, RNA was extracted and mRNA levels were determined by quantitative RT-PCR as described (19, 26). Actin mRNA levels were used as the qRT-PCR internal standard. The primers and sequences used in qRT-PCR were as follows.

Assay [2] deals with T1, ERα. Further details: Using a stably transfected breast cancer cell line that expresses endogenous ERα; endogenous in cells; host or cells: T47D-KBluc. Conditions: T47D cells, conditions identical to TPSF; see Mao C et al., 2008; read-out: IC50 for inhibition of E2-ERα-mediated (ERE)3-luciferase expression; cited from earlier work.
A further assay deals with BT474 cells. As to the kind of experiment: E2-ERα-dependent growth of BT474 cells (MTS). It counts as cell-based. The settings on record: Homo sapiens, BT-474, 96 h, 100 pM E2, 4 days, read-out: IC50 for inhibition of E2-ERα-dependent growth of BT474 cells. The procedure: (§2) FIG. 20 illustrates further activity of TPSF in the inhibition of tamoxifen-resistant human breast cancer cells. The effects of TPSF on the E2-ERα-dependent growth of tamoxifen-resistant BT474 and ZR-75 cells were assessed. […] The cells were maintained in medium containing 10% CD-FBS (ZR-75) or 10% CD-CS (BT474) containing or lacking 100 pM E2 and the indicated concentrations of TPSF. Viable cells were measured by comparison to a standard curve of cell number versus absorbance using the MTS assay. Data represents the average of at least 4 wells. IC50 values for TPSF inhibition of cell growth were calculated by curve-fitting using Sigma Plot.
(§3) Assays for Cell Growth and Viability. Cells were maintained in the media listed above containing CD-treated serum for at least 4 days prior to the experiment. To minimize cell aggregation, MCF-7 cells were harvested in 10 mM Hepes, pH 7.4, 1 mM EDTA. Other cell lines were harvested in trypsin-EDTA. 1,000 cells were plated into each well of a 96 well plate. For slow growing ZR-75 cells, 2,000 cells were plated/well. The cells were maintained in medium containing CD-treated serum for 24 hours. At 24 hours the medium was changed and E2 and DMSO vehicle or TPSF in DMSO was added. […] After 4 days viable cells were determined using a cell viability test, Promega CellTiter 96 Aqueous One Solution Cell Proliferation Assay (MTS) (Promega, Wis.).

Assay [3] addresses T1, ERα. As to the kind of experiment: (ERE)3-luciferase reporter gene assay in T47D-KBluc cells. Further details: Using a stably transfected breast cancer cell line that expresses endogenous ERα; endogenous in cells; host or cells: T47D-KBluc. It counts as cell-based.
The target of assay [4] is T1, ERα. As to the kind of experiment: Estrogen induction of cyclin D1 mRNA in MCF-7 cells. Type of assay: cell-based. Further details: endogenous in cells. Conditions: 10 μM, 10 nM E2, 24 h. The procedure:
FIG. 15 illustrates results of testing for inhibition of the estrogen induction of Cyclin D1 mRNA. MCF-7 cells were plated and 24 h later treated with ethanol vehicle, 10 nM E2, or 10 nM E2 and 10 μM TPSF. Cells were maintained for 24 hours, RNA was extracted and cyclin D1 mRNA levels were measured by qRT-PCR. Cyclin D1 mRNA levels in the vehicle only sample were set to 1. Data is the average±SEM for 3 experiments each assayed in triplicate.
as §1

The next assay deals with ZR-75 cells. As to the kind of experiment: E2-ERα-dependent growth of ZR-75 cells (MTS). It counts as cell-based. Conditions: Homo sapiens, ZR75, 96 h, 100 pM E2, 4 days, read-out: IC50 for inhibition of E2-ERα-dependent growth of ZR-75 cells. As for the experimental part: as §2, §3

On to `Cn1c(=O)c2nc(CSCc3ccccc3)[nH]c2n(C)c1=O` [Compound 95910, 8-Benzylsulfanylmethyl-1,3-dimethyl-3,7-dihydro-purine-2,6-dione], for which the “inhibition of OHT-ERα induction of PI-9 mRNA” value against ERα [1] (30 μM, 500 pM OHT) was determined as 48%. Besides, the IC50 at ERα [1] (100 pM E2, 24 h, read-out: IC50 for inhibition of E2-ERα induction of PI-9 mRNA) is 9000 nM and 8500 nM; at ERα [2], 11000 nM.
Regarding `Cn1c(=S)c2[nH]c(SCCCC(=O)c3ccc(F)cc3)nc2n(C)c1=O` [TPSF, Butyrophenone, p-fluoro-4-(1,2,3,6,-tetrahydro-1,3-dimethyl-2-oxo-6-thionopurin-8-ylthio)], the IC50 with BT474 cells is 1600 nM; on ERα [3] (0.2 nM E2, 24 h, read-out: IC50 for inhibition of E2-ERα-mediated (ERE)3-luciferase expression) it was 400 nM; on ERα [3] (100 nM E2, 24 h, read-out: IC50 for inhibition of E2-ERα-mediated (ERE)3-luciferase expression (ERE-Luc)), 700 nM; in the assay on ZR-75 cells it was 900 nM. For the same compound, the “effect on E2-mediated induction of PI-9 mRNA” value at ERα [1] (10 μM, 100 pM E2) is on record as “blocked”. Also, at ERα [1] (10 μM, 500 pM OHT), the “effect on OHT-ERα induction of PI-9 mRNA” value was “blocked”. The “effect on E2 induction of cyclin D1 mRNA” value on ERα [4] was “completely inhibited; also recorded: abolished”.
